From US20050197350A1, “Novel quinoline, tetrahydroquinazoline, and pyrimidine derivatives and methods of treatment related to the use thereof” (TAISHO PHARMACEUTICAL CO., LTD., priority 2003, published 2005) come the findings set out here.

Where a name gives a salt, the structure may show the parent alone. Where only a bound is given, the exact number is not on record here.

One test concerns the target MCH receptor (Homo sapiens, UniProt Q99705). Put plainly: High throughput functional screening FLIPR/FDSS6000 (intracellular Ca2+ evoked by MCH). Particulars: FLIPR/FDSS, antagonist activity vs 50 nM MCH; class by percent of control at 10^−7 M or IC50; read-out: class. Format: cell-based. The essentials: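 For antagonist testing, compound-treated cells (30 min, 37 °C) were stimulated with 50 nM MCH and intracellular Ca2+ followed by Fluo4 fluorescence on FLIPR/FDSS6000. Receptor was a constitutively active, non-endogenous MCH receptor; dye loading 4 μM Fluo4-AM, 1 h, 37 °C.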
Turning to `Cc1cc(N[C@H]2CC[C@@H](C(=O)N[C@@H](C)c3cc(C(F)(F)F)cc(C(F)(F)F)c3)CC2)nc2ccccc12` [Example 3309, cis-N-{(1S)-1-[3,5-bis(trifluoromethyl)phenyl]ethyl}-4-[(4-methylquinolin-2-yl)amino]cyclohexanecarboxamide], the IC50 lay in the range of 50 to 200 nM. Take `Cc1cc(CN[C@H]2CC[C@@H](NC(=O)c3ccc(F)c(F)c3)CC2)nc2ccccc12` [Example 3366, 3,4-difluoro-N-(cis-4-{[(4-methylquinolin-2-yl)methyl]amino}cyclohexyl)benzamide]: the IC50 is over 200 nM.

Take `Cc1cnc(N[C@H]2CC[C@@H](NC(=O)[C@@H]3C[C@H]3c3cccc(Cl)c3)CC2)nc1N(C)C` (relative stereo) [Example 3317, trans-2-(3-chlorophenyl)-N-(cis-4-{[4-(dimethylamino)-5-methylpyrimidin-2-yl]amino}cyclohexyl)-cyclopropanecarboxamide]: the IC50 was under 50 nM. Same read-out and setting: as for `Cc1cc(N(C)C)nc(N[C@H]2CC[C@@H](NC(=O)N(C)C(C)(C)c3ccc(Cl)cc3)CC2)n1` [Example 3270, N-[1-(4-chiorophenyl)-1-methylethyl]-N′-(cis-4-{[4-(dimethylamino)-6-methylpyrimidin-2-yl]amino}cyclohexyl)-N-methylurea], the figure is 50 to 200 nM; as for `Cc1cnc(N[C@H]2CC[C@@H](C(=O)N[C@@H](C)c3ccc(Cl)cc3)CC2)nc1N(C)C` [Example 3292, cis-N-[(1S)-1-(4-chlorophenyl)ethyl]-4-{[4-(dimethylamino)-5-methylpyrimidin-2-yl]amino}cyclohexanecarboxamide], 50 to 200 nM. On the same count and under the same terms, as for `Cc1cc(N(C)C)nc(N[C@H]2CC[C@@H](NC(=O)NC(C)(C)c3ccc(Cl)cc3)CC2)n1` [Example 3265, N-[1-(4-chlorophenyl)-1-methylethyl]-N′-(cis-4-{[4-(dimethylamino)-6-methylpyrimidin-2-yl]amino}cyclohexyl)urea], the figure is 50 to 200 nM. Same read-out and setting: as for `Cc1cc(N(C)C)nc(N[C@H]2CC[C@@H](NC(=O)c3cccnc3S(=O)(=O)c3ccc(Cl)cc3)CC2)n1` [Example 3371, 2-[(4-chlorophenyl)sulfonyl]-N-(cis-4-{[4-(dimethylamino)-6-methylpyrimidin-2-yl]amino}cyclohexyl)nicotinamide], the figure is over 200 nM. As for `Cc1cc(N(C)C)nc(N[C@H]2CC[C@@H](NC(=O)c3cccnc3S(=O)(=O)c3ccc(F)cc3)CC2)n1` [Example 3368, N-(cis-4-{[4-(dimethylamino)-6-methylpyrimidin-2-yl]amino}cyclohexyl)-2-[(4-fluorophenyl)sulfonyl]nicotinamide], the IC50 is 50 to 200 nM. On to `COc1cccc(NC(=O)N[C@H]2CC[C@@H](Nc3ncc(C)c(N(C)C)n3)CC2)c1` [Example 3322, N-(cis-4-{[4-(dimethylamino)-5-methylpyrimidin-2-yl]amino}cyclohexyl)-N′-(3-methoxyphenyl)urea], for which the IC50 was over 200 nM.

As to `COc1nc(N[C@H]2CC[C@@H](NC(=O)c3ccc(Cl)c(Cl)c3)CC2)ncc1C` [Example 3278, 3,4-dichloro-N-{cis-4-[(4-methoxy-5-methylpyrimidin-2-yl)amino]cyclohexyl}benzamide], the IC50 is 50 to 200 nM.

For the compound `Cc1cnc(N[C@H]2CC[C@@H](NCC(=O)c3ccc(F)c(F)c3)CC2)nc1N(C)C` [Example 3261, 1-(3,4-difluorophenyl)-2-[(cis-4-{[4-(dimethylamino)-5-methylpyrimidin-2-yl]amino}cyclohexyl)amino]ethanone], the IC50 was over 200 nM. The same measure, in the same setting: to `Cc1cnc(N[C@H]2CC[C@@H](NC(=O)N(C)c3ccc(Cl)cc3Cl)CC2)nc1N(C)C` [Example 3348, N-(2,4-dichlorophenyl)-N′-(cis-4-{[4-(dimethylamino)-5-methylpyrimidin-2-yl]amino}cyclohexyl)-N-methylurea] belongs under 50 nM.

Staying with this test, now noted: FLIPR/FDSS, antagonist activity vs 50 nM MCH; class by percent of control at 10^−7 M or IC50; table after the classification; read-out: class.
With `CN(C)c1ccnc(N[C@H]2CC[C@@H](NCCc3ccc(Br)cc3OC(F)(F)F)CC2)n1` [Example 18, N^2-{cis-4-[2-(4-Bromo-2-trifluoromethoxy-phenyl)-ethylamino]-cyclohexyl}-N^4,N^4-dimethyl-pyrimidine-2,4-diamine dihydrochloride], the IC50 was under 50 nM. Turning to `O=C(N[C@H]1CC[C@@H](Nc2ccc3ccccc3n2)CC1)c1ccc(-c2ccc(Cl)cc2)o1` [Example 3044, 5-(4-Chloro-phenyl)-furan-2-carboxylic acid [cis-4-(quinolin-2-ylamino)-cyclohexyl]-amide hydrochloride], the IC50 was 50 to 200 nM. Still for that read-out and setting: as for `CN(CCO)c1ccnc(N[C@H]2CC[C@@H](NC(=O)c3ccc(F)c(F)c3)CC2)n1` [Example 3227, 3,4-Difluoro-N-(cis-4-{4-[(2-hydroxy-ethyl)-methyl-amino]-pyrimidin-2-ylamino}-cyclohexyl)-benzamide hydrochloride], the figure is over 200 nM. The same measure, in the same setting: as for `Cc1cnc(N[C@H]2CC[C@@H](NC(=O)c3cc(F)cc(Cl)c3)CC2)nc1N(C)C` [Example 3388, 3-Chloro-N-[cis-4-(4-dimethylamino5-methyl-pyrimidin-2-ylamino)-cyclohexyl]5-fluoro-benzamide hydrochloride], the figure is under 50 nM; as for `Cc1cnc(N[C@H]2CC[C@@H](NC(=O)c3cc(F)cc(F)c3)CC2)nc1N(C)C` [Example 3390, N-[cis-4-(4-Dimethylamino-5-methyl-pyrimidin-2-ylamino)-cyclohexyl]-3,5-difluoro-benzamide hydrochloride], under 50 nM; as for `Cc1cc(N[C@H]2CC[C@@H](NC(=O)c3cc(C(F)(F)F)cc(C(F)(F)F)c3)CC2)nc2ccccc12` [Example 3157, N-[cis-4-(4-Methyl-quinolin-2-ylamino)-cyclohexyl]-3,5-bis-trifluoromethyl-benzamide hydrochloride], 50 to 200 nM. Take `CN(C)c1nc(N[C@H]2CC[C@@H](NC(=O)c3cccnc3Oc3ccccc3)CC2)ncc1Br` [Example 3141, N-[cis-4-(5-Bromo-4-dimethylamino-pyrimidin-2-ylamino)-cyclohexyl]-2-phenoxy-nicotinamide hydrochloride]: the IC50 was in the range of 50 to 200 nM. For `Cc1cnc(N[C@H]2CC[C@@H](NC(=O)c3cccnc3Oc3ccccc3Br)CC2)nc1N(C)C` [Example 3124, 2-(2-Bromo-phenoxy)-N-[cis-4-(4-dimethylamino-5-methyl-pyrimidin-2-ylamino)-cyclohexyl]-nicotinamide hydrochloride], the IC50 was under 50 nM. Still for that read-out and setting: to `CN(C)c1nc(N[C@H]2CC[C@@H](NC(=O)c3ccc(F)c(Cl)c3)CC2)ncc1F` [Example 3229, 3-Chloro-N-[cis-4-(4-dimethylamino-5-fluoro-pyrimidin-2-ylamino)-cyclohexyl]-4-fluoro-benzamide hydrochloride] belongs under 50 nM; to `Cc1cccc(Oc2ncccc2C(=O)N[C@H]2CC[C@@H](Nc3cc(C)c4ccccc4n3)CC2)c1` [Example 3097, N-[cis-4-(4-Methylquinolin-2-ylamino)-cyclohexyl]-2-m-tolyloxy-nicotinamide hydrochloride], under 50 nM. As to `Cc1cc(N[C@H]2CC[C@@H](NC(=O)c3cc(F)c(F)c(F)c3)CC2)nc2ccccc12` [Example 3180, 3,4,5-Trifluoro-N-[cis-4-(4-methyl-quinolin-2-ylamino)-cyclohexyl]-benzamide hydrochloride], the IC50 was under 50 nM. The same measure, in the same setting: to `Cc1cc(N[C@H]2CC[C@@H](NC(=O)c3cc([N+](=O)[O-])cn3C)CC2)nc2ccccc12` [Example 3081, 1-Methyl-4-nitro-1H-pyrrole-2-carboxylic acid-[cis-4-(4-methyl-quinolin-2-ylamino)-cyclohexyl]-amide hydrochloride] belongs under 50 nM; to `O=C(N[C@H]1CC[C@@H](Nc2ccc3ccccc3n2)CC1)c1cccnc1Oc1ccc(F)cc1` [Example 3054, 2-(4-Fluoro-phenoxy)-N-[cis-4-(quinolin-2-ylamino)-cyclohexyl]-nicotinamide hydrochloride], under 50 nM; to `CN(C)c1nc(N[C@H]2CC[C@@H](NC(=O)c3ccc4nonc4c3)CC2)nc2c1CCCC2` [Example 3111, Benzo[2,1,3]oxadiazole-5-carboxylic acid-[cis-4-(4-dimethylamino-5,6,7,8-tetrahydro-quinazolin-2-ylamino)-cyclohexyl]-amide hydrochloride], under 50 nM. Still for that read-out and setting: to `O=C(COc1cccc(Cl)c1)N[C@H]1CC[C@@H](Nc2ccc3ccccc3n2)CC1` [Example 3063, 2-(3-Chloro-phenoxy)-N-[cis-4-(quinolin-2-ylamino)-cyclohexyl]-acetamide hydrochloride] belongs under 50 nM. Still for that read-out and setting: as for `Cc1cc(N[C@H]2CC[C@@H](NC(=O)c3cccnc3Oc3ccc(F)cc3)CC2)nc2ccccc12` [Example 3090, 2-(4-Fluoro-phenoxy)-N-[cis-4-(4-methyl-quinolin-2-ylamino)-cyclohexyl]-nicotinamide hydrochloride], the figure is under 50 nM; as for `COC(=O)c1cccc(C(=O)N[C@H]2CC[C@@H](Nc3cc(C)c4ccccc4n3)CC2)c1` [Example 3174, N-[cis-4-(4-Methylquinolin-2-ylamino)-cyclohexyl]-isophthalamic acid-methyl ester hydrochloride], under 50 nM. In the case of `Cc1cc(N[C@H]2CC[C@@H](NC(=O)c3cccc(F)c3F)CC2)nc2ccccc12` [Example 3162, 2,3-Difluoro-N-[cis-4-(4-methyl-quinolin-2-ylamino)-cyclohexyl]-benzamide hydrochloride], the IC50 lay within 50 to 200 nM.

As to `COc1cc(OC)nc(N[C@H]2CC[C@@H](NC(=O)c3cccnc3Oc3ccccc3)CC2)n1` [Example 3135, N-[cis-4-(4,6-Dimethoxy-pyrimidin-2-ylamino)-cyclohexyl]-2-phenoxy-nicotinamide hydrochloride], the IC50 is over 200 nM.
